Results: US5428031A, “Methods of treating cardiac arrhythmia” (priority 1993, dated 1995)

How the values were obtained:
[1] = biological target: T1, IKs (slowly activating delayed rectifier K+ current) (Cavia porcellus, UniProt O70344); experiment: cell-based; assay type: cell-based, guinea pig
T1 construct: Guinea pig ventricular myocytes were isolated; endogenous in cells; host or cells: isolated guinea pig ventricular myocytes
Method: Current amplitude is measured as the difference from the initial instantaneous current level following the capacitance discharge after changing the transmembrane voltage from -50 mV to +50 mV, to the current level at the end of the 1 second voltage step. Normally, an increase in the current amplitude occurs as a function of time and voltage during depolarization of the cardiac cell membrane and this increasing current has been defined as the delayed rectifier K^+ current (IK). […] IKs current occurs as a consequence of time- and voltage-dependent opening of ionic channels or pores in the cardiac cell membrane that allow the relatively selective flow of potassium ions (K^+) from the inside to the outside of the cell, that is, down the voltage and concentration gradient for K^+ ions that is inherent in cardiac cells. Thus, block of the IKs current ultimately reflects block of certain ion channels or pores in the cardiac cell membrane. However, the single pores or channels thought to underlie the IKs current have yet to be measured or identified at the single channel level.
Guinea pig ventricular myocytes were isolated using a modification of the procedure described by Mitra R and Morad M., "A Uniform Enzymatic Method for Dissociation of Myocytes from Hearts and Stomachs of Nertilorates", Am. J. Physiol. […] Excised hearts were perfused through the aorta (retrograde fashion) at a rate of 10 ml/min with oxygenated, warmed (37° C.) solutions described below. […] The head was then perfused with the same nominally Ca^2+ -free solution containing 150 units/ml Type II collagenase (Worthington) and 0.5 units/ml Type XIV protease (Sigma) for 8 minutes. This perfusate was followed by a Tyrode's solution containing 0.2 mM CaCl2 (without enzymes) for 5 minutes. The digested ventricles were cut into small pieces and gently shaken until cells were visibly dispersed. The cells were stored at room temperature until use, within 8 hours after isolation.
The suction microelectrode technique described by Giles, W. R. and Shibata, E. F., "Voltage clamp of bull-frog cardiac pacemaker cells: a quantitative, analysis of potassium currents". J. Physiol. […] Microelectrodes were made by using a two stage puller from square bore (1.0 mm o.d.) borosilicate capillary tubing. […] After establishing whole-cell recording mode, negative pressure was maintained on the pipette using a 1 ml gas-tight syringe attached via air tight tubing to the suction port of the microelectrode holder. This minimized dialysis of the cell with the pipette solution.
To record K^+ currents, the cells were bathed in a Ca^2+ -free Tyrode's :solution containing […] nisoldipine. […] A List EPC-7 clamp amplifier was used to voltage clamp the isolated cells. […] A variety of voltage pulse protocols were used to measure Ca^2+ current and three types of K^+ currents: inward rectifier (IK1), rapidly activating delayed rectifier (IKr) and the slowly activating delayed rectifier (IKs). Sanguinetti M. C. and Jurkiewicz, N. K., "Two components of cardiac delayed rectifier K^+ current: Differential sensitivity to block by Class III antiarrhythmic agents". […] Data was analyzed as % block from control membrane currents.
Nisoldipins was prepared as a 4 mM stock solution in polyethylne glycol 200. Compounds tested in this series were prepared as 10 mM stock solutions in polyethylene glycol 400 or dimethyl sulfoxide.

[2] = system: anesthetized dogs; experiment: frequency-dependent effects on cardiac (ventricular) refractory period in anesthetized dogs; assay type: in vivo, dog; conditions: 1.0 mg/kg i.v.
Method: Purpose-bred male or female mongrel dogs (9.8-10.8 kg) were anesthetized with alpha chloralose (80-100 mg/kg i.v.), and the animals were ventilated using a volume-cycled respirator. The right femoral artery and vein were isolated and cannulated for the measurement of systemic arterial pressure and for test agent administration, respectively. A right thoracotomy was performed in the 4th intercostal space, the pericardium incised, and the heart suspended in a pericardial cradle. One stainless steel bipolar plunge electrode was sutured to the ,anterior surface of the right ventricle for the determination of ventricular excitation threshold and refractory periods, while a second stainless steel bipolar plunge electrode was sutured to the right ventricular apex for ventricular pacing. A 21 gauge stainless steel hypodermic needle attached to a 1 ml syringe containing 40% formaldehyde was introduced into the right atrium via a stab wound and purse-string suture. The atrioventricular (AV) node was identified and then chemically ablated with formaldehyde using the method of Steiner and Kovalik (Steiner C. and Kovalik A. T. W., "A simple technique for production of chronic complete heart block in dogs", J. Appl. Physiol. 25: 631-632:, 1968). After the ablation of the AV node, heart rate was controlled and maintained at either 60 or 150 beats/min, as dictated by the experimental protocol, by ventricular apical pacing. Limb electrodes were attached for the continuous recording of Lead II electrocardiogram.
Ventricular excitation threshold (ET) and relative refractory periods (RRPs) were determined alternately at heart rates of 60 and 150 beats/min using an extrastimulus technique described previously (Wallace A. A. et. al., "Cardiac electrophysiologic and inotropic actions of new and potent methanesulfonanilide Class III antiarrhythmic agents in the anesthetized dog". J. Cardiovasc. Pharmacol. 18: 687-695, 1991). Ventricular excitation threshold was defined as the minimum current required to evoke a propagated response for a ventricular extrastimulus introduced at a coupling interval of 250-300 msec after a basic ventricular apical beat. The ventricular relative refractory period was defined as the longest coupling interval failing to elicit a propagated response for a ventricular extrastimulus introduced with a current intensity of 2× the ventricular excitation threshold. Multiple alternating baseline 60 and 150 beat/min RRPs were measured in each preparation, with two-to-three stable consecutive baseline RRP determinations required prior to administration of the test agent.
The compound of Example 26 was administered intravenously at a dosage of 1.0 mg/kg over a period of 5 minutes to a group of 5 anesthetized dogs. The compound of Example 26 was infused in a vehicle of 2% cremophor/2% ethanol/96% saline, at a test agent concentration of 0.5 mg/ml. Ventricular RRPs at 60 and 150 beats/min were redetermined immediately, 15 and 30 minutes following the intravenous administration of the compound of Example 26. The frequency-dependence of the activity of the compound of Example 26 was assessed by comparing absolute increases in ventricular RRPs from the final corresponding baseline value determined at slower (60 beat/min) vs faster (150 beat/min) heart rates.

SMILES | IC50 [1] | block of IKs ([1]; 5 μM) | Increase in Ventricular Relative Refractory Period above baseline ([2]; 60 beat/min, 15 Min) | Increase in Ventricular Relative Refractory Period above baseline ([2]; 60 beat/min, 30 Min) | Increase in Ventricular Relative Refractory Period above baseline ([2]; 60 beat/min, Immediate) | Increase in Ventricular Relative Refractory Period above baseline ([2]; 150 beat/min, 15 Min) | Increase in Ventricular Relative Refractory Period above baseline ([2]; 150 beat/min, 30 Min) | Increase in Ventricular Relative Refractory Period above baseline ([2]; 150 beat/min, Immediate) | frequency dependence of increase in ventricular RRP ([2]; 60 and 150 beat/min) | selective block of IKs ([1]; selective: 50% block of IKs at 1 μM or less and at least 10 fold lower than for IKr and/or IK1)
Cc1cccc(NC(=O)N[C@@H]2N=C(c3ccccc3)c3ccccc3N(C)C2=O)c1 [Compound 4, (R)-N-(2,3-dihydro-1-methyl-2-oxo-5-phenyl-1H-1,4-benzodiazepin-3-yl)-N'-(3-methylphenyl)urea] | 215 nM | Complete block | – | – | – | – | – | – | – | –
CN1C(=O)[C@H](NC(=O)/C=C/c2ccc(Cl)cc2Cl)N=C(c2ccccc2)c2ccccc21 [Example 26, E-(+)-N-[(3R)-2,3-Dihydro-1-methyl-2-oxo-5-phenyl-1H-1,4-benzo-diazepin-3-yl]-3-(2,4-dichlorophenyl)-2-propenamide] | – | – | 19.2 ± 3.4 ms | 14.0 ± 2.3 ms | 29.6 ± 4.4 ms | 15.6 ± 4.1 ms | 11.4 ± 4.4 ms | 23.2 ± 7.3 ms | Equivalent increases in the ventricular RRPs | selective blocker of IKs
